What was measured:
Assay type in all cases: cell-based, human
[1] = tested on: T cell lines primed in vitro to Der p II; test: secondary proliferation of Der p II-primed T cell lines (Examples VIII, X, XI); conditions: Der p II T-cell map and analogs
Method in brief: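 PBMC from house dust mite-allergic patients primed in vitro with native or recombinant Der p II at 20 μg/ml (or recombinant at 3 μg/ml), with x-irradiated (3500 Rads) autologous PBMC as antigen-presenting cells. Lines then challenged with Der p II-derived peptides; proliferation expressed as S.I., ranked sum scoring top three responses 3, 2, 1.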

[2] = tested on: T cell lines primed in vitro with Der p II; test: T cell proliferation with fine map and modified Group II peptides (Example XIV); conditions: for positive T cell responses, modified peptides: 21 T cell lines, Der p II primed, FIG. 32a; for T cell response, Group II peptides: FIGS. 32a-b
Method in brief: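 Bulk T cell lines primed with 30 μg/ml native Der p I or Der p II for 5-6 days, rested with IL-2/IL-4, then restimulated 3 days with peptides plus irradiated autologous EBV-B cells or PBMs. Proliferation by 16-20 h [3H]thymidine uptake; stimulation index = peptide CPM / medium CPM, averaged over responding patients.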

[3] = tested on: PBMC from mite-allergic patient; test: primary T cell (PBMC) proliferation, mite-allergic patient, tritiated thymidine; conditions: medium 1071 ± 30
Method in brief: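 Ficoll-purified PBMC (5×10^4/well, triplicate) from one mite-allergic donor cultured 7 days at 37 °C with graded concentrations of purified Der p I, Der p II or their peptides in RPMI-1640 plus 5% human AB serum. 1 μCi ^3H-thymidine added for 16 h; CPM counted, stimulation index = antigen CPM/medium-only CPM.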

Row | Substance | T-cell reactivity (DPII-22 series development) [1] | positive T cell responses, modified peptides [2] | T cell response, Group II peptides [2] | CPM ± S.D. ([3]; 10 μg/ml) [CPM] | CPM ± S.D. ([3]; 30 μg/ml) [CPM] | CPM ± S.D. ([3]; 100 μg/ml) [CPM]
1 | DP II-22.14: DKELEAVFEANQNTKTAKAE; unique peptide | almost the same T-cell reactivity as the "parent" peptide | all 21 T cell lines responded positively | positive T cell studies |  |  | 
2 | DP I-3: Der p I peptide (TVTPIRMQGGCGSCWAFSGVAATESAYLA) |  |  |  | 2608 ± 52 | 1561 ± 13 | 5252 ± 67
3 | DP I-1: Der p I peptide, amino acid residues 1-20 (TNACSINGNAPAEIDLRQMR) |  |  |  | 1099 ± 48 | 3527 ± 73 | 2746 ± 81
4 | DP II-22: QLEAVFEANQNTKTAKIEIKASIDGLEV | exhibits most of the reactivity found in the individual peptides |  | positive T cell studies |  |  | 
5 | DP II-20.9: modified Der p II peptide; unique peptide (DQVDVKDCANHEIKKVLVPGCHGSE) |  | all 21 T cell lines responded positively | positive T cell studies |  |  | 

Reference: patent US5968526A, “T cell epitopes of the major allergens from Dermatophagoides (house dust mite)” (Immulogic Pharamaceutical Corporation, priority 1995, dated 1999)
